# Results taken from PubChem BioAssay (NCI).
#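 Five compound concentrations were applied to cells in 96-well plates for 48 hours; endpoints were derived by simple linear interpolation of the resulting dose-response curve. Definition used: TGI = concentration required for complete inhibition of growth.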
# Experiments:
# Test in all cases: NCI tumour cell line growth inhibition, 48 h
# [1] = tested on: 786-0 renal
# [2] = tested on: A498 renal
# [3] = tested on: CAKI-1 renal
# [4] = tested on: DU-145 prostate
# [5] = tested on: HCT-116 colon
# [6] = tested on: HL-60(TB) leukemia
# [7] = tested on: MDA-MB-231 breast
# [8] = tested on: MDA-MB-435
# [9] = tested on: NCI-H226 lung
# [10] = tested on: NCI-H23 lung
# [11] = tested on: NCI-H460 lung
# [12] = tested on: OVCAR-8 ovarian
# [13] = tested on: PC-3 prostate
# [14] = tested on: SF-268 CNS
# [15] = tested on: SK-MEL-5 melanoma
# [16] = tested on: SK-OV-3 ovarian
# [17] = tested on: UACC-257 melanoma
# [18] = tested on: UO-31 renal
compound,measurement,setting,value
COc1cc2c(OC)c3cc(C)oc(=O)c3c(O)c2c(O)c1-c1c(OC)cc2c(OC)c3cc(C)oc(=O)c3c(O)c2c1O,TGI,[1],60.8 µM
same,TGI,[2],51 µM
same,TGI,[3],47 µM
same,TGI,[4],> 100 µM
same,TGI,[5],28 µM
same,TGI,[6],33.9 µM
same,TGI,[7],36.6 µM
same,TGI,[8],33.9 µM
same,TGI,[9],38.2 µM
same,TGI,[10],32.5 µM
same,TGI,[11],42.5 µM
same,TGI,[12],30 µM
same,TGI,[13],33 µM
same,TGI,[14],42.6 µM
same,TGI,[15],35.8 µM
same,TGI,[16],> 100 µM
same,TGI,[17],44.1 µM
same,TGI,[18],35.9 µM
[N-]=[N+]=NCC(=O)c1c[nH]c(=O)[nH]c1=O,TGI,[1],> 100 µM
same,TGI,[2],> 100 µM
same,TGI,[3],> 100 µM
same,TGI,[4],> 100 µM
same,TGI,[5],> 100 µM
same,TGI,[6],> 100 µM
same,TGI,[7],> 100 µM
same,TGI,[8],> 100 µM
same,TGI,[9],> 100 µM
same,TGI,[10],> 100 µM
same,TGI,[11],> 100 µM
same,TGI,[12],> 100 µM
same,TGI,[13],> 100 µM
same,TGI,[14],> 100 µM
same,TGI,[15],> 100 µM
same,TGI,[16],> 100 µM
same,TGI,[17],> 100 µM
same,TGI,[18],> 100 µM
C=CC(C)(C)c1c(OC)oc2ccc(OC)c(C)c2c1=O,TGI,[1],> 100 µM
same,TGI,[2],> 100 µM
same,TGI,[3],> 100 µM
same,TGI,[4],> 100 µM
same,TGI,[5],> 100 µM
same,TGI,[6],> 100 µM
same,TGI,[7],> 100 µM
same,TGI,[8],> 100 µM
same,TGI,[9],> 100 µM
same,TGI,[10],> 100 µM
same,TGI,[11],> 100 µM
same,TGI,[12],> 100 µM
same,TGI,[13],> 100 µM
same,TGI,[14],> 100 µM
same,TGI,[15],> 100 µM
same,TGI,[16],> 100 µM
same,TGI,[17],> 100 µM
same,TGI,[18],> 100 µM
CCN1CCC(O)(/C=C/c2cccc(C)c2)C(C(=O)/C=C/c2cccc(C)c2)C1 (configuration not stated),TGI,[1],5.83 µM
same,TGI,[2],4.52 µM
same,TGI,[3],4.31 µM
same,TGI,[4],13.8 µM
same,TGI,[5],6.13 µM
same,TGI,[6],> 100 µM
same,TGI,[7],11.5 µM
same,TGI,[8],4.61 µM
same,TGI,[9],5.89 µM
same,TGI,[10],4.95 µM
same,TGI,[11],4.64 µM
same,TGI,[12],10.4 µM
same,TGI,[13],> 25.4 µM
same,TGI,[14],3.44 µM
same,TGI,[15],3.99 µM
same,TGI,[16],11.4 µM
same,TGI,[17],7.31 µM
same,TGI,[18],3.06 µM
